Measured values reported in US8119624B2, “Fused phenyl amido heterocyclic compounds” (Pfizer Inc., priority 2006, dated 2012).

Biological target: T1, Full-length glucokinase (beta cell isoform) (Homo sapiens, UniProt P35557)
T1 construct: Full-length glucokinase (beta cell isoform) was His-tagged at N-terminus; His tag (N); made in house
T1 sequence (P35557 1-465): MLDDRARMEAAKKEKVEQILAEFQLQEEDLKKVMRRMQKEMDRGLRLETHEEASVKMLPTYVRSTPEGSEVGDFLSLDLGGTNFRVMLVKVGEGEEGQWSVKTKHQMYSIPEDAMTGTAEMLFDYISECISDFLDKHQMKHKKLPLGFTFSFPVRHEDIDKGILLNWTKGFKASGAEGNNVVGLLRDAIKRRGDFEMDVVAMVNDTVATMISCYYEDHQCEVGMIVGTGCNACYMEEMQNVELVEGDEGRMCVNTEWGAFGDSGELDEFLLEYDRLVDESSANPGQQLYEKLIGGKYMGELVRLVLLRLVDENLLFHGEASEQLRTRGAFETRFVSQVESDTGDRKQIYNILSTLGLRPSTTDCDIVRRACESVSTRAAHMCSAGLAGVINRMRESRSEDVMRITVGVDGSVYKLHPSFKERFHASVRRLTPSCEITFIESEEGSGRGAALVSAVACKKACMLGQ
Assay: Glucokinase biochemical assay (PK/LDH-coupled, NADH depletion at 340 nm): % activation, EC50, % max activation
Details: 5 mM glucose; for activation at 10 µM / % Activation at 10 uM: 10 uM compound, % Activation=(Va/Vo−1)×100; for activation at 10 µM: read-out: % Activation at 10 uM; for EC50: GK activation, read-out: EC50; for Emax / % Max Activation: fitted maximum activation; for Emax: read-out: % Max Activation
Summary of the method: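 Activation expressed as (Va/Vo−1)×100, where initial rates with and without compound come from NADH depletion at 340 nm over 200–900 s. Enzyme is His-tagged human beta-cell GK, full length, run at room temperature in HEPES buffer with 1 mM ATP and 5 mM glucose. DMSO 1%.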

Cn1ccc(NC(=O)c2cc(Oc3ccc(S(=O)(=O)C4CC4)cc3)c3c(c2)OC(C)(CO)C3)n1 (stereo not shown) [Example 245, 4-(4-Cyclopropanesulfonyl-phenoxy)-2-hydroxymethyl-2-methyl-2,3-dihydro-benzofuran-6-carboxylic acid (1-methyl-1H-pyrazol-3-yl)-amide]
activation at 10 µM: 196% | EC50: 130 nM | Emax: 236%

Cn1ccc(NC(=O)c2cc(Oc3ccc(C(=O)NC4CCC4)c(F)c3)c3c(c2)OC(C)(C)C3)n1 [Example 74, 4-(4-Cyclobutylcarbamoyl-3-fluoro-phenoxy)-2,2-dimethyl-2,3-dihydro-benzofuran-6-carboxylic acid(1-methyl-1H-pyrazol-3-yl)-amide]
activation at 10 µM: 285% | EC50: 540 nM | Emax: 258%

CCS(=O)(=O)c1ccc(Oc2cc(C(=O)Nc3ccn(C)n3)cc3c2CC(C)(C)O3)cc1F [Example 136, 4-(4-Ethanesulfonyl-3-fluoro-phenoxy)-2,2-dimethyl-2,3-dihydro-benzofuran-6-carboxylic acid (1-methyl-1H-pyrazol-3-yl)-amide]
activation at 10 µM: 237% | EC50: 120 nM | Emax: 236%

Cc1cc2cc(C(=O)Nc3ccn(C)n3)cc(O[C@@H](C)Cc3ccccc3)c2o1 [Example 340, 2-Methyl-7-[(1S)-1-methyl-2-phenylethoxy]-N-(1-methyl-1H-pyrazol-3-yl)-1-benzofuran-5-carboxamide]
activation at 10 µM: 41.2% | EC50: > 10000 nM

COc1ccnc(NC(=O)c2cc(Oc3ccc(S(C)(=O)=O)cc3)c3c(c2)OC(C)(C)C3)c1 [Example 18, 4-(4-Methanesulfonyl-phenoxy)-2,2-dimethyl-2,3-dihydro-benzofuran-6-carbo-xylic acid(4-methoxy-pyridin-2-yl)-amide]
activation at 10 µM: 105% | EC50: 950 nM | Emax: 114%

CN(C)C(=O)c1ccc(Oc2cc(C(=O)Nc3ccn(C)n3)cc3c2CC(C)(C)O3)nc1 [Example 162, 6-[2,2-Dimethyl-6-(1-methyl-1H-pyrazol-3-ylcarbamoyl)-2,3-dihydro-benzofuran-4-yloxy]-N,N-dimethyl-nicotinamide]
activation at 10 µM: 105% | EC50: 1600 nM | Emax: 135%

COCC1(C)Cc2c(Oc3ccc(S(=O)(=O)C4CC4)cc3)cc(C(=O)Nc3ccn(C)n3)cc2O1 (single isomer, unassigned; (-)) [Example 247, (−)-4-(4-Cyclopropanesulfonyl-phenoxy)-2-methoxymethyl-2-methyl-2,3-dihydro-benzofuran-6-carboxylic acid (1-methyl-1H-pyrazol-3-yl)-amide]
% Activation at 10 uM: 252% | EC50: 83 nM | % Max Activation: 254%

Cn1ccc(NC(=O)c2cc(Oc3cc(F)ccc3S(C)(=O)=O)c3c(c2)OC(C)(C)C3)n1 [Example 115, 4-(5-Fluoro-2-methanesulfonyl-phenoxy)-2,2-dimethyl-2,3-dihydro-benzofuran-6-carboxylic acid (1-methyl-1H-pyrazol-3-yl)-amide]
activation at 10 µM: 79.7% | EC50: 8800 nM | Emax: 141%

Cc1nccnc1C(C)Oc1cc(C(=O)Nc2ccn(C)n2)cc2c1CC(C)(C)O2 (stereo not shown) [Example 83, 2,2-Dimethyl-4-[1-(3-methyl-pyrazin-2-yl)-ethoxy]-2,3-dihydro-benzofuran-6-carboxylic acid (1-methyl-1H-pyrazol-3-yl)-amide]
activation at 10 µM: 78.3% | EC50: 8200 nM | Emax: 148%

Cc1cc2c(Oc3ccc(S(=O)(=O)N4CCC4)cc3)cc(C(=O)Nc3ccc(CO)cn3)cc2o1 [Example 301, 4-(4-(Azetidin-1-ylsulfonyl)phenoxy)-N-(5-(hydroxymethyl)-pyridin-2-yl)-2-methylbenzofuran-6-carboxamide]
activation at 10 µM: 168% | EC50: 150 nM | Emax: 137%

Cn1ccc(NC(=O)c2cc(Oc3ccc(S(C)(=O)=O)cc3)c3cc(CO)oc3c2)n1 [Example 317, 2-(Hydroxymethyl)-N-(1-methyl-1H-pyrazol-3-yl)-4-[4-(methylsulfonyl)-phenoxy]-1-benzofuran-6-carboxamide]
activation at 10 µM: 186% | EC50: 1700 nM | Emax: 228%

Cc1ccc(NC(=O)c2cc(Oc3ccc(S(C)(=O)=O)cc3)c3c(c2)OC(C)(CO)C3)nc1 (stereo not shown) [Example 230, 2-Hydroxymethyl-4-(4-methanesulfonyl-phenoxy)-2-methyl-2,3-dihydro-benzofuran-6-carboxylic acid (5-methyl-pyridin-2-yl)-amide]
activation at 10 µM: 91.8% | EC50: 330 nM | Emax: 95%

CCS(=O)(=O)c1ccc(Oc2cc(C(=O)Nc3cnn(C)n3)cc3c2CC(C)(C)O3)cc1 [Example 133, 4-(4-Ethanesulfonyl-phenoxy)-2,2-dimethyl-2,3-dihydro-benzofuran-6-carboxylic acid (2-methyl-2H-[1,2,3]triazol-4-yl)-amide]
activation at 10 µM: 308% | EC50: 120 nM | Emax: 293%

Cn1ccc(NC(=O)c2cc(Oc3ccc(C(=O)N4CCC4)cc3F)c3c(c2)OC(C)(C)C3)n1 [Example 32, 4-[4-(Azetidine-1-carbonyl)-2-fluoro-phenoxy]-2,2-dimethyl-2,3-dihydro-benzo-furan-6-carboxylic acid(1-methyl-1H-pyrazol-3-yl)-amide]
activation at 10 µM: 164% | EC50: 210 nM | Emax: 177%

Cc1cc2cc(Oc3ccc(S(C)(=O)=O)cc3)cc(C(=O)Nc3ccn(C)n3)c2o1 [Example 4, 5-(4-Methanesulfonyl-phenoxy)-2-methyl-benzofuran-7-carboxylic acid(1-methyl-1H-pyrazol-3-yl)-amide]
activation at 10 µM: 14.6%

Cn1ncc(NC(=O)c2cc(Oc3ccc(S(C)(=O)=O)c(Cl)c3)c3c(c2)OC(C)(C)C3)n1 [Example 118, 4-(3-Chloro-4-methanesulfonyl-phenoxy)-2,2-dimethyl-2,3-dihydro-benzofuran-6-carboxylic acid (2-methyl-2H-[1,2,3]triazol-4-yl)-amide]
activation at 10 µM: 244% | EC50: 320 nM | Emax: 251%

Cc1cc2c(Oc3ccc(S(=O)(=O)N(C)C)c(F)c3)cc(C(=O)Nc3cnc(N(C)C)cn3)cc2o1 [Example 308, N-[5-(Dimethylamino)pyrazin-2-yl]-4-{4-[(dimethylamino)-sulfonyl]-3-fluorophenoxy}-2-methyl-1-benzofuran-6-carboxamide]
activation at 10 µM: 141% | EC50: 110 nM | Emax: 131%

CCOCC1Cc2c(OC(C)C)cc(C(=O)Nc3ccn(C)n3)cc2O1 (stereo not shown) [Example 217, 2-Ethoxymethyl-4-isopropoxy-2,3-dihydro-benzofuran-6-carboxylic acid (1-methyl-1H-pyrazol-3-yl)-amide]
activation at 10 µM: 5.3%

CNC(=O)c1ncc(Oc2cc(C(=O)Nc3ccn(C)n3)cc3c2CC(C)(C)O3)cc1F [Example 176, 5-[2,2-Dimethyl-6-(1-methyl-1H-pyrazol-3-ylcarbamoyl)-2,3-dihydro-benzofuran-4-yloxy]-3-fluoro-pyridine-2-carboxylic acid methylamide]
activation at 10 µM: 194% | EC50: 450 nM | Emax: 203%

COCc1cc2c(Oc3ccc(S(C)(=O)=O)cc3)cc(C(=O)Nc3cnc(N(C)C)cn3)cc2o1 [Example 311, N-[5-(Dimethylamino)pyrazin-2-yl]-2-(methoxymethyl)-4-[4-(methylsulfonyl)-phenoxy]-1-benzofuran-6-carboxamide]
activation at 10 µM: 106% | EC50: 380 nM | Emax: 114%

CC(C)Oc1cc(C(=O)Nc2ccn(C)n2)cc2c1CC(Cc1ccccc1)O2 (stereo not shown) [Example 221, 2-Benzyl-4-isopropoxy-2,3-dihydro-benzofuran-6-carboxylic acid (1-methyl-1H-pyrazol-3-yl)-amide]
activation at 10 µM: 8.4%

COCC1Cc2c(Oc3ccc(C(=O)N(C)C)cc3)cc(C(=O)Nc3ccn(C)n3)cc2O1 (single isomer, unassigned; (+)) [Example 212, (+)-4-(4-Dimethylcarbamoyl-phenoxy)-2-methoxymethyl-2,3-dihydro-benzofuran-6-carboxylic acid (1-methyl-1H-pyrazol-3-yl)-amide]
% Activation at 10 uM: 111% | EC50: 2600 nM | % Max Activation: 144%

Cc1cc2cc(C(=O)Nc3ccn(C)n3)cc(O[C@@H](C)Cc3ccccc3)c2s1 [Example 328, 2-Methyl-7-(1-methyl-2-phenylethoxy)-N-(1-methyl-1H-pyrazol-3-yl)-1-benzothiophene-5-carboxamide]
activation at 10 µM: 41.3% | EC50: > 10000 nM

CC1Cc2c(Oc3ccc(S(C)(=O)=O)cc3)cc(C(=O)Nc3ccn(C)n3)cc2O1 (stereo not shown) [Example 11, 4-(4-Methanesulfonyl-phenoxy)-2-methyl-2,3-dihydro-benzofuran-6-carboxylic acid(1-methyl-1H-pyrazol-3-yl)-amide]
activation at 10 µM: 158% | EC50: 2000 nM | Emax: 177%
